From US11623931B2, “Bicyclic compounds for diagnosis and therapy” (AC IMMUNE SA, priority 2016, dated 2023) come the findings set out here.

For assay [1], the target named is T1, aSyn aggregates on PD sections (Homo sapiens, UniProt P37840).
T1 construct: 20 μm frozen sections from amygdala were purchased from an external provider (Tissue Solutions Ltd.); tissue Tissue Solutions Ltd; host or cells: human PD amygdala, frozen sections, Braak stage V-VI
The experiment in a line: Assay 1 (fluorescence based assay): direct staining of human Parkinson's disease brain sections. It is filed as binding. Further details: key: − (No); +/− (very weak); + (weak); ++ (good); +++ (strong). The conditions noted are these: staining intensity; compound 100 μM, frozen amygdala sections, PD Braak stage V-VI. An excerpt:
Assay 1 (Fluorescence Based Assay):
Direct Staining of Compounds of this Invention to Human Parkinson's Disease Brain Sections
20 μm frozen sections from amygdala were purchased from an external provider (Tissue Solutions Ltd.). Donors were diagnosed with PD, Braak stage V-VI (Braak et al., Neurobiol. Aging, 2003, 24, 197-211) and thus with confirmed aSyn pathology. PD donors, Braak stage V-VI with mixed pathology, containing aSyn aggregates as well as Aβ plaques, were also used in this assay. Sections were kept at −80° C. until start of the experiment.
Brain sections were encircled with pap pen liquid blocker to reduce the volume of solution for the different incubations. Sections were fixed for 15 min at 4° C. with 4% paraformaldehyde and washed three times for 5 minutes with PBS (phosphate buffered saline) at room temperature. Test compounds were incubated on the sections at 100 μM in 50% ethanol in water for 30 min at room temperature, followed by three washes of 5 minutes with PBS. Sections were then saturated and permeabilized in blocking buffer (PBS, 10% NGS, 0.25% Triton) for 1 hour at room temperature and then incubated for 2 hours at room temperature with the primary antibodies against aSyn: aSyn-211 (SantaCruz Biotechnology sc-12767) or aSyn-pS129 (Abcam AB51253), and primary antibody against AR, 4G8, (Covance, SIG-39220). All primary antibodies diluted 1/250 in PBS, 5% NGS, 0.25% Triton. After three washes in PBS, the sections were incubated for 30 minutes at room temperature with a secondary anti-mouse antibody labeled with AlexaFluor555 (Invitrogen A21422) or anti-rabbit antibody labeled with AlexaFluor555 (Invitrogen A21428) and further washed three times in PBS. To reduce auto-fluorescence of the tissue, the sections were incubated in a solution of 0.1% Sudan Black (Sigma 199664) in 70% ethanol for 15 min at room temperature, followed by four washes with PBS and mounted under cover slips using ProLong Gold Antifade reagent (Invitrogen P36930).
Sections were analyzed on the Nikon Eclipse Ti microscope to detect staining and imaged using Nikon DS-Fi2 camera and NIS-Element AR4.13.1 software.

Assay [2] concerns Aβ plaques on AD sections. The experiment in a line: Assay 1 (fluorescence based assay): direct staining of human Alzheimer's disease brain sections. Further details: key: − (No); +/− (very weak); + (weak); ++ (good); +++ (strong). As to conditions: staining intensity; compound 100 μM, frozen amygdala sections, AD Braak stage V-VI. The format is binding. As for the experimental part: Direct Staining of Compounds of this Invention to Human Alzheimer's Disease Brain Sections 20 μm frozen sections from amygdala were purchased from an external provider (Tissue Solutions Ltd.). Donors were diagnosed with AD, Braak stage V-VI (Braak et al., Neurobiol. Aging, 1995, 16, 271-284) and thus with confirmed Aβ pathology. Sections were kept at −80° C. until start of the experiment. Brain sections were encircled with pap pen liquid blocker to reduce the volume of solution for the different incubations. Sections were fixed for 15 min at 4° C. with 4% paraformaldehyde and washed three times for 5 minutes with PBS at room temperature. Test compounds were incubated on the sections at 100 μM in 50% ethanol in water for 30 min at room temperature, followed by three washes of 5 minutes with PBS. Sections were then saturated and permeabilized in blocking buffer (PBS, 10% NGS, 0.25% Triton) for 1 hour at room temperature and then incubated for 2 hours at room temperature with the primary antibodies against AR, 4G8, (Covance, SIG-39220), diluted 1/250 in PBS, 5% NGS, and 0.25% Triton. After three washes in PBS, the sections were incubated for 30 minutes at room temperature with a secondary anti-mouse antibody labeled with AlexaFluor555 (Invitrogen A21422) and further washed three times in PBS. To reduce auto-fluorescence of the tissue, the sections were incubated in a solution of 0.1% Sudan Black (Sigma 199664) in 70% ethanol for 15 min at room temperature, followed by four washes with PBS and mounted under cover slips using ProLong Gold Antifade reagent (Invitrogen P36930). Sections were analyzed on the Nikon Eclipse Ti microscope to detect staining and imaged using Nikon DS-Fi2 camera and NIS-Element AR4.13.1 software.

For `FCCOc1cccc(Nc2ccc3cc(-c4cccnc4)sc3n2)c1` [Example 59], in assay [1], the “Staining of aSyn aggregates on PD sections” value (from here on “Staining of aSyn aggregates”) is recorded as “+”. Also, the “Staining of Aβ plaques on AD sections” value in assay [2] is reported as “+”.
Consider `c1cncc(-c2cc3ccc(Nc4ccc(N5CCOCC5)nc4)nc3s2)c1` [Example 66], for which the “Staining of aSyn aggregates” value in assay [1] was “+”. Besides, in assay [2], the “Staining of Aβ plaques on AD sections” value is on record as “++”.
Take `COc1cccc(/C=C/c2ccc3cc(-c4cccnc4)sc3n2)c1` [Example 16]: the “Staining of aSyn aggregates” value in assay [1] is recorded as “++”. Also, in assay [2], the “Staining of Aβ plaques on AD sections” value was “++”.
Regarding `c1cncc(-c2ccc3sc(-c4ccc(N5CCCC5)nc4)nc3c2)c1` [Example 39], in assay [1], the “Staining of aSyn aggregates” value is “+”. Further, in assay [2], the “Staining of Aβ plaques on AD sections” value is listed as “+”.
For `Fc1cncc(-c2ccc3sc(-c4ccc(N5CCCC5)nc4)cc3n2)c1` [Example 28], the “Staining of aSyn aggregates” value in assay [1] was “+”. Moreover, the “Staining of Aβ plaques on AD sections” value in assay [2] is listed as “+”.
Consider `CN1CCN(c2ccc3nc(-c4ccc(N5CCCC5)nc4)sc3c2)C(=O)C1` [Example 69], for which, in assay [1], the “Staining of aSyn aggregates” value is reported as “++”. Besides, in assay [2], the “Staining of Aβ plaques on AD sections” value was “+”.
In the case of `CNc1ccc(-c2ccc3cc(-c4ccc(OC)c(O)c4)sc3n2)cc1` [Example 30], the “Staining of aSyn aggregates” value in assay [1] is reported as “++”. Besides, the “Staining of Aβ plaques on AD sections” value in assay [2] is given as “++”.
Consider `FCCOc1ccc(Nc2ccc3cc(-c4cccnc4)sc3n2)cc1` [Example 63], for which the “Staining of aSyn aggregates” value in assay [1] is “++”. For the same compound, in assay [2], the “Staining of Aβ plaques on AD sections” value is “++”.
On to `CN(C)c1ncc(-c2ccc3cc(-c4cccnc4)sc3n2)cn1` [Example 29], for which the “Staining of aSyn aggregates” value in assay [1] is “+”. Also, in assay [2], the “Staining of Aβ plaques on AD sections” value is given as “++”.
For `CNc1ccc(-c2ccc3cc(-c4cccc(OC)c4O)sc3n2)cn1` [Example 3], in that order: “++” and “++”.
Take `F[C@@H]1CCN(c2ccc(-c3cc4nc(-c5cccnc5)ccc4s3)cn2)C1` [Example 46]: the “Staining of aSyn aggregates” value in assay [1] is recorded as “+”. Also, the “Staining of Aβ plaques on AD sections” value in assay [2] was “+”.
Regarding `c1ccc(-c2cc3ccc(-c4ccc(N5CCCC5)nc4)nc3s2)nc1` [Example 21], the “Staining of aSyn aggregates” value in assay [1] is listed as “++”. Also, the “Staining of Aβ plaques on AD sections” value in assay [2] is “++”.
As to `CNc1ccc(-c2ccc3cc(-c4ccc(F)nc4)sc3n2)cn1` [Example 8], the “Staining of aSyn aggregates” value in assay [1] is “++”. Further, the “Staining of Aβ plaques on AD sections” value in assay [2] is reported as “+++”.
As for `c1cncc(-c2cc3ccc(Nc4ccc(N5CCOCC5)cc4)nc3s2)c1` [Example 65], the “Staining of aSyn aggregates” value in assay [1] is reported as “+”. In addition, in assay [2], the “Staining of Aβ plaques on AD sections” value is “+++”.
For `CNc1ccc(-c2ccc3cc(-c4ccc(C#N)cn4)sc3n2)cn1` [Example 5], in that order: “+” and “+”.
The matching figures for `FCCOC1CCN(c2cc3nc(-c4ccc(N5CCCC5)nc4)sc3cn2)CC1` [Example 68]: “+” and “−”.
Consider `Cn1cc(-c2ccc3sc(-c4ccc(N5CC[C@H](F)C5)nc4)nc3c2)cn1` [Example 53], for which the “Staining of aSyn aggregates” value in assay [1] was “+”. The “Staining of Aβ plaques on AD sections” value in assay [2] is given as “+”.
Turning to `FCCn1cc(-c2cc3nc(-c4ccc(N5CCCC5)nc4)sc3cn2)cn1` [Example 79], the “Staining of aSyn aggregates” value in assay [1] is “+”. For the same compound, the “Staining of Aβ plaques on AD sections” value in assay [2] is “+”.
Turning to `CN(C)c1ccc(-c2cc3ccc(-c4ccc(N5CCC(F)CC5)nc4)nc3s2)cn1` [Example 50], the “Staining of aSyn aggregates” value in assay [1] was “++”. Moreover, the “Staining of Aβ plaques on AD sections” value in assay [2] is recorded as “+”.
For `CN(CCF)c1ccc(-c2ccc3cc(-c4cccnc4)sc3n2)cn1` [Example 57], in that order: “++” and “+”.
As to `FCCNc1ccc(-c2ccc3cc(-c4cccnc4)sc3n2)cn1` [Example 56], in assay [1], the “Staining of aSyn aggregates” value is listed as “++”. Further, in assay [2], the “Staining of Aβ plaques on AD sections” value is “++”.
As to `O=C1c2sc(-c3ccc(N4CCCC4)nc3)nc2CCN1c1cccnc1` [Example 80], the “Staining of aSyn aggregates” value in assay [1] is recorded as “+++”. In assay [2], the “Staining of Aβ plaques on AD sections” value is reported as “++”.
The matching figures for `CNc1ccc(-c2cc3ccc(Nc4ccc(N5CCOCC5)cc4)nc3s2)cc1` [Example 76]: “+” and “+++”.
In the case of `Cn1cc(-c2ccc3sc(-c4ccc(N5CC[C@@H](F)C5)nc4)nc3c2)cn1` [Example 52], the “Staining of aSyn aggregates” value in assay [1] is on record as “+”. For the same compound, the “Staining of Aβ plaques on AD sections” value in assay [2] was “−”.
For `c1cncc(-c2cc3ccc(-c4ccc(N5CCCC5)nc4)nc3s2)c1` [Example 32], in that order: “+++” and “+++”.
As for `COc1ccc(/C=C/c2ccc3cc(-c4ccc(OCCF)cc4)sc3n2)cc1` [Example 13], in assay [1], the “Staining of aSyn aggregates” value was “++”. In assay [2], the “Staining of Aβ plaques on AD sections” value is “+++”.
With `CN(C)c1ccc(-c2cc3ccc(-c4ccc(F)nc4)nc3s2)cn1` [Example 36], the “Staining of aSyn aggregates” value in assay [1] is on record as “+++”. In assay [2], the “Staining of Aβ plaques on AD sections” value is reported as “+++”.
On to `c1cncc(-c2cc3ccc(-c4ccc(N5CCOCC5)cc4)nc3s2)c1` [Example 33], for which, in assay [1], the “Staining of aSyn aggregates” value was “+++”. Moreover, the “Staining of Aβ plaques on AD sections” value in assay [2] is listed as “+”.
The matching figures for `FCCOC1CCN(c2ccc3cc(-c4cccnc4)sc3n2)CC1` [Example 67]: “+” and “+”.
The matching figures for `CNc1ccc(-c2ccc3cc(-c4ccc(OCCF)cc4)sc3n2)cc1` [Example 11]: “+” and “++”.
The matching figures for `c1cncc(-c2cc3ccc(Nc4ccc5c(c4)OCCO5)nc3s2)c1` [Example 64]: “+” and “+++”.
In the case of `CNc1ccc(-c2cc3ccc(Nc4ccc5c(c4)OCCO5)nc3s2)cc1` [Example 75], the “Staining of aSyn aggregates” value in assay [1] is “++”. The “Staining of Aβ plaques on AD sections” value in assay [2] is given as “+++”.
The matching figures for `FCCOc1ccc(-c2cc3ccc(-c4ccc(F)nc4)nc3s2)cc1` [Example 12]: “+” and “++”.
The matching figures for `c1cncc(-c2ccc3nc(-c4ccc(N5CCCC5)nc4)sc3c2)c1` [Example 19]: “+++” and “+++”.
The matching figures for `CNc1ccc(-c2ccc3cc(-c4ccnc(OC)c4)sc3n2)cc1` [Example 31]: “+” and “++”.
As for `O=C1COCCN1c1ccc2nc(-c3ccc(N4CCC[C@H](F)C4)nc3)sc2c1` [Example 127], the “Staining of aSyn aggregates” value in assay [1] was “++”. Besides, in assay [2], the “Staining of Aβ plaques on AD sections” value is given as “+”.
The matching figures for `c1ncc(-c2cc3ccc(-c4ccc(N5CCCC5)nc4)nc3s2)cn1` [Example 35]: “++” and “++”.
